# Active and inactive are the calls of the source. The calls are words filed in the database; no cut-off is given here.
# What was measured:
# [1] = MRT in ICR mouse at 25 mg/kg, po administered as single dose and measured upto 24 hrs by LC-MS/MS analysis; assay type: ADME, organism-based; settings: in vivo
# [2] = target: NS5 (Zika virus) (UniProt A0A143MHK7); assay: Binding affinity to Zika virus RdRp by SPR analysis; settings: dose 1.56-25 µM
# [3] = system: Zika virus; assay: Antiviral activity against Zika virus infected in golden hamster BHK cells assessed as inhibition of viral RNA production at stage IV pre-infected with virus for 2 hrs followed by compound addition and measured 24 hrs post infection by qRT-PCR analysis; assay type: functional, organism-based; settings: time 22.0 hrs
# [4] = system: Zika virus; assay: Antiviral activity against Zika virus infected in golden hamster BHK cells assessed as inhibition of virus induced cytopathic effect incubated for 6 to 8 days by CellTiter-Glo luminescent cell viability assay; assay type: functional, organism-based
# [5] = system: Dengue virus; assay: Antiviral activity against Dengue virus assessed as inhibition of viral RNA production at stage III; assay type: functional, organism-based
# [6] = Tmax in ICR mouse at 25 mg/kg, po administered as single dose and measured upto 24 hrs by LC-MS/MS analysis; assay type: ADME, organism-based; settings: in vivo
# [7] = system: Zika virus; assay: Antiviral activity against Zika virus infected in golden hamster BHK-21 cells assessed as inhibition of viral replication incubated for 72 hrs by Dual-luciferase reporter assay system; assay type: functional, organism-based; settings: BHK-21, 72 h
# [8] = Acute toxicity in A129 mouse assessed as animal death at 200 mg/kg, po measured after 2 weeks; assay type: organism-based; settings: in vivo, 336 h
# [9] = Acute toxicity in po dosed ICR mouse assessed as lethal dose measured after 2 weeks; assay type: organism-based; settings: in vivo
# [10] = Acute toxicity in A129 mouse assessed as animal death at 50 mg/kg, po measured after 2 weeks; assay type: organism-based; settings: in vivo, 336 h
# [11] = system: U-87MG ATCC; assay: Effect on CXCL8 expression in human U87 cells infected with Zika virus at 10 uM by KEGG enrichment analysis; assay type: functional, cell-based
# [12] = system: Zika virus; assay: Inhibition of Zika virus NS2B-NS3 protease using Bz-Nle-Lys-Lys-Arg-AMC as substrate at 1.25 to 200 uM preincubated for 30 mins followed by substrate addition and measured after 20 mins by Real-time fluorescence based analysis; settings: dose 1.25-200 µM, time 50.0 min
# [13] = system: U-87MG ATCC; assay: Effect on CXCL3 expression in human U87 cells infected with Zika virus at 10 uM by KEGG enrichment analysis; assay type: functional, cell-based
# [14] = system: Zika virus; assay: Antiviral activity against Zika virus infected in U87 cells assessed as suppression of CXCL11 expression at 10 uM by KEGG enrichment analysis; assay type: functional, organism-based
# [15] = system: Zika virus; assay: Inhibition of Zika virus NS5-RdRp at 12.5 uM preincubated for 20 mins followed by ATP addition and measured after 60 mins by fluorescence based assay relative to control; settings: time 80.0 min
# [16] = Acute toxicity in A129 mouse assessed as animal death at 100 mg/kg, po measured after 2 weeks; assay type: organism-based; settings: in vivo, 336 h
# [17] = system: Zika virus; assay: Antiviral activity against Zika virus infected in Ifnar-/- A129 mouse assessed as reduction in viral RNA in serum at 10 mg/kg, ip administered twice daily for 4 days by qRT-PCR analysis; assay type: functional, organism-based; settings: time 4.0 day
# [18] = system: Zika virus; assay: Inhibition of Zika virus NS5-RdRp preincubated for 20 mins followed by ATP addition and measured after 60 mins by fluorescence based assay; settings: dose 3.13-50 µM, time 80.0 min
# [19] = system: Dengue virus; assay: Antiviral activity against Dengue virus assessed as inhibition of viral RNA production at stage IV; assay type: functional, organism-based
# [20] = Cmax in ICR mouse at 25 mg/kg, po administered as single dose and measured upto 24 hrs by LC-MS/MS analysis; assay type: ADME, organism-based; settings: in vivo
# [21] = system: Zika virus; assay: Antiviral activity against Zika virus infected in golden hamster BHK cells assessed as reduction in infectious viral propagation incubated for 72 hrs by plaque reduction assay; assay type: functional, organism-based; settings: dose 2.5-20 µM
# [22] = system: Zika virus; assay: Antiviral activity against Zika virus SMGC-1 infected in ICR mouse assessed as increase in body weight at 10 mg/kg, ip pre-infected with virus for 4 hrs followed by once daily compound administration for 9 days and measured at 14 to 24 days; assay type: functional, organism-based; settings: time 14-24 day
# [23] = system: Zika virus; assay: Antiviral activity against Zika virus SMGC-1 infected in ICR mouse assessed as survival at 1 mg/kg, ip pre-infected with virus for 4 hrs followed by once daily compound administration for 9 days and measured after 24 days relative to control; assay type: functional; settings: SMGC-1, 576 h, time 24 day
# [24] = system: U-87MG ATCC; assay: Effect on CXCL2 expression in human U87 cells infected with Zika virus at 10 uM by KEGG enrichment analysis; assay type: functional, cell-based
# [25] = Half-life in ICR mouse at 25 mg/kg, po administered as single dose and measured upto 24 hrs by LC-MS/MS analysis; assay type: ADME, organism-based; settings: in vivo
# [26] = system: Zika virus; assay: Antiviral activity against Zika virus infected in infected in golden hamster BHK cells assessed as inhibition of viral RNA production at stage III incubated for 24 hrs by qRT-PCR analysis; assay type: functional, organism-based
# [27] = system: Zika virus; assay: Inhibition of Zika virus NS5 MTase activity at 50 uM by chemiluminescence-based enzymatic assay system relative to control
# [28] = system: Zika virus; assay: Antiviral activity against Zika virus infected in golden hamster BHK cells assessed as inhibition of viral protein production incubated for 72 hrs by Western blot analysis; assay type: functional, organism-based; settings: dose 2.5-20 µM
# [29] = Inhibition of Zika virus NS5 transfected in HEK293T cells co-transfected with GLuc reporter plasmid incubated for 24 hrs by GLuc reporter assay; assay type: cell-based; settings: HEK-293T
# [30] = system: Zika virus; assay: Inhibition of Zika virus NS5-RdRp at 50 uM preincubated for 20 mins followed by ATP addition and measured after 60 mins by fluorescence based assay relative to control; settings: time 80.0 min
# [31] = AUC (0 to t) in ICR mouse at 25 mg/kg, po administered as single dose and measured upto 24 hrs by LC-MS/MS analysis; assay type: ADME, organism-based; settings: in vivo
# [32] = system: Zika virus; assay: Antiviral activity against Zika virus SMGC-1 infected in ICR mouse assessed as survival at 10 mg/kg, ip pre-infected with virus for 4 hrs followed by once daily compound administration for 9 days and measured after 24 days relative to control; assay type: functional; settings: SMGC-1, 576 h, time 24 day
# [33] = system: Zika virus; assay: Antiviral activity against Zika virus infected in golden hamster BHK cells assessed as inhibition of viral replication incubated for 72 hrs by qRT-PCR analysis; assay type: functional, organism-based; settings: dose 2.5-20 µM
smiles,measurement,setting,value
O[C@@H]1[C@H](O)[C@@H](CNCc2ccc(C(F)(F)F)cc2)O[C@H]1n1cnc2c(NCc3cccc(Cl)c3)ncnc21,MRT,[1],3.82 h
same,Activity,[2],Dose-Dependent Effect
same,Activity,[3],Active
same,IC50,[4],2.15 µM
same,Activity,[5],Active
same,Tmax,[6],0.42 h
same,IC50,[7],5.27 µM
same,Activity,[8],Non-Toxic
same,LD50 at 336 h,[9],> 200 mg/kg
same,Activity,[10],Non-Toxic
same,Activity,[11],inactive
same,inhibition,[12],inactive
same,Activity,[13],inactive
same,Activity,[14],Active
same,inhibition,[15],17.5%
same,Activity,[16],Non-Toxic
same,Activity,[17],Active
same,inhibition,[18],Dose-Dependent Effect
same,Activity,[19],Active
same,Cmax,[20],0.699 µg/mL
same,Activity,[21],Dose-Dependent Effect
same,Activity,[22],Active
same,survival at 1 mg/kg,[23],30%
same,Activity,[24],inactive
same,half-life,[25],2.46 h
same,Activity,[26],Active
same,inhibition,[27],20.5%
same,Activity,[28],Dose-Dependent Effect
same,IC50,[29],8.78 µM
same,inhibition,[30],62.4%
same,AUC(0-t) at 24 h,[31],2.22 µg·h/mL
same,survival at 10 mg/kg,[32],70%
same,Activity,[33],Dose-Dependent Effect
